{
  "source": "patent US20050245510A1",
  "about": "(Boehringer Ingelheim Vetmedica GmbH, priority 2004, published 2005)",
  "key": {"mastitis cases": {"system": "mastitis cases", "details": "infused intramammarily in special vehicle together with amoxicillin/clavulanic acid; cited from earlier work"}, "[1]": {"system": "E. coli endotoxin 026:B6 lipopolysaccharide induced mastitis in lactating cows", "type": "in vivo", "experimental": "A blinded in-vivo study with a parallel group design was conducted in 2003. The study was conducted according to Good Laboratory Practices.\nThe animals were clinically examined before endotoxin-challenge and at 2 h (before treatment), 4 h, 6 h, 8 h, 10 h, 24 h, 34 h, 48 h, 72 h, 7 days, and 14 days after endotoxin-challenge.\nThe size of the challenged udder quarter was documented using the following score: • 0 Normal • 1 Slight increase up to 20% • 2 20-50% increase • 3 More than 50% increase\nRuminal contractions during a 2 minutes period were examined by auscultation in the left paralumbar fossa. In painful conditions of any kind, the frequency of ruminal contractions in ruminants tends to decrease.\nMilk samples for analysis of thromboxane B2 (TBX)—a relevant mediator of inflammation—were taken from the endotoxin-challenged quarter before endotoxin challenge and at 2 h (before treatment), 4 h, 6 h, 8 h, 10 h, and 24 h after endotoxin-challenge.\nMilk somatic cell count (SCC) was measured before endotoxin-challenge and at 10 h, 24 h, 34 h, 48 h, 72 h, 7 days, and 14 days after challenge."}},
  "data": [
    {"compound": "Cc1c(Nc2ncccc2C(=O)O)cccc1C(F)(F)F", "note": "[flunixin, flunixin meglumine]", "values": [
      {"measurement": "effect on pain perception", "setting": "mastitis cases", "value": "no beneficial effect on pain perception"}
    ]},
    {"compound": "Cc1cnc(NC(=O)C2=C(O)c3ccccc3S(=O)(=O)N2C)s1", "note": "[meloxicam]", "values": [
      {"measurement": "ruminal contractions in 2 min, mean ± S.D.", "setting": "[1]; 30 mg meloxicam per quarter, at 24 h after challenge", "value": "3.4±0.55"},
      {"measurement": "size of challenged udder quarter, mean score ± S.D.", "setting": "[1]; 30 mg meloxicam per quarter, intramammary 2 h after challenge, at 10 h after challenge", "value": "1.2±0.44 score (0-3)"},
      {"measurement": "standardised difference of udder size score versus untreated", "setting": "[1]; 30 mg meloxicam, 10 h, difference in means divided by larger S.D. (untreated group)", "value": 1.2},
      {"measurement": "standardised difference of ruminal contractions versus untreated", "setting": "[1]; 30 mg meloxicam, 24 h, calculated with larger S.D. (untreated group)", "value": 0.9},
      {"measurement": "local and systemic tolerance", "setting": "[1]; intramammary, dose range 10-50 mg per affected udder quarter", "value": "good"}
    ]}
  ]
}
